According to US8119630B2 (Arrow Therapeutics Limited, priority 2002, dated 2012):
Like-named read-outs stand apart in the source and are kept apart here.

How the values were obtained:
[1] = test system: RSV; experiment: XTT assay, RSV-infected Vero cells; format: cell-based, Respiratory Syncytial Virus (RSV); details: Vero cells infected with RSV, m.o.i.≈0.2, 6 days at 33° C.
Experimental: Examples 1 to 74 and 83 to 124 were tested using the following protocol.
(§1) The inner 60 wells of 96 well tissue culture plates were seeded with Vero cells at 3×10^4 cells/well (1×10^4 cells/well for toxicity studies) in 100 or 150 μl of medium and incubated at 37° C. overnight or until nearing confluency. For primary screen, 25 μl compounds were added directly to 100 μl medium in single wells to duplicate plates. A third plate was prepared for simultaneous toxicity investigation.
(§2) For follow-up investigation, 70 μl of compound in duplicate wells were added directly to culture medium at 3.2× final concentration and ½ log serially diluted down columns of plate. A duplicate plate was prepared for simultaneous toxicity investigation.
Cells were infected with 25 μl RSV to give m.o.i.≈0.2. Some 100 μl of sterile distilled water were added to the outer wells of the plate and incubated at 33° C. for 6 days. Some 0.25 μl/ml PMS were added to stock XTT solution, final conc. […]. Then 25 μl warmed XTT/PMS solution were added to each well and incubated for 5 hours at 37° C. Plates were shaken (DynaTech Vari-Shaker) vigorously for 10 mins and allowed to cool for 15 mins before sealing. Absorbance at 450 nm was measured and data analysed using Microsoft Excel software.
Maximum OD450nm reading (uninfected, untreated control cells) corresponded to 100% inhibition. Minimum OD450nm readings (infected control cells) corresponded to 0% inhibition. Log 10 concentration was plotted against OD450nm and IC50 (Table 1) values were calculated from either reading 50% value from graph or using regression analysis.

[2] = test system: Vero cells; experiment: Simultaneous toxicity investigation (XTT), Vero cells; format: cell-based; parameters: unit not given here; details: for TC50 (2d): Table 2, Examples 83 to 124, 2d; for TC50 (6d): Table 2, Examples 83 to 124, 6d
Experimental: as §1, §2
Cells were infected with 25 μl RSV to give m.o.i.≈0.2. […] Some 0.25 μl/ml PMS were added to stock XTT solution, final conc. […]. Then 25 μl warmed XTT/PMS solution were added to each well and incubated for 5 hours at 37° C. Plates were shaken (DynaTech Vari-Shaker) vigorously for 10 mins and allowed to cool for 15 mins before sealing. Absorbance at 450 nm was measured and data analysed using Microsoft Excel software.

[3] = human respiratory syncytial virus, Vero, 144 h, read-out: XTT IC50 (uM), Table 2, Examples 83 to 124
[4] = Table 2, Examples 83 to 124, read-out: XTT IC50
[5] = human respiratory syncytial virus, Vero, 144 h, read-out: XTT IC50 (uM), Table 1

Compound: O=C(NCc1ccc(Br)cc1)NC1N=C(c2ccccc2)c2ccccc2NC1=O (centres unmarked) [Example 118, 1-(4-Bromo-benzyl)-3-(2-oxo-5-phenyl-2,3-dihydro-1H-benzo[e][1,4]diazepin-3-yl)-urea]
- IC50 [1, 3]: 2 µM
- TC50 (2d) [2]: >100
- TC50 (6d) [2]: 100

Compound: COc1cc([N+](=O)[O-])ccc1C(=O)NC1N=C(c2ccccc2)c2ccccc2NC1=O (centres unmarked) [Example 93, 2-Methoxy-4-nitro-N-(2-oxo-5-phenyl-2,3-dihydro-1H-benzo[e][1,4]diazepin-3-yl)-benzamide]
- IC50 [1, 3]: < 0.3 µM
- TC50 (2d) [2]: 100
- TC50 (6d) [2]: >100

Compound: COc1ccccc1C(=O)NC1N=C(c2cccc(C(F)(F)F)c2)c2ccccc2NC1=O (centres unmarked) [Example 104, 2-Methoxy-N-[2-oxo-5-(3-trifluoromethyl-phenyl)-2,3-dihydro-1H-benzo[e][1,4]diazepin-3-yl]-benzamide]
- IC50 [1, 3]: 5 µM
- TC50 (2d) [2]: >100
- TC50 (6d) [2]: >100

Compound: O=C(Nc1ccc(C(F)(F)F)cc1)NC1N=C(c2ccccc2)c2ccccc2NC1=O (centres unmarked) [Example 87, 1-(2-Oxo-5-phenyl-2,3-dihydro-1H-benzo[e][1,4]diazepin-3-yl)-3-(4-trifluoromethyl-phenyl)-urea]
- IC50 [1, 3]: 4 µM
- TC50 (2d) [2]: 50
- TC50 (6d) [2]: 50

Compound: COc1cccc(C(=O)NC2N=C(c3ccccc3)c3ccccc3NC2=O)c1[N+](=O)[O-] (centres unmarked) [Example 90, 3-Methoxy-2-nitro-N-(2-oxo-5-phenyl-2,3-dihydro-1H-benzo[e][1,4]diazepin-3-yl)-benzamide]
- IC50 [1, 3]: 0.5 µM
- TC50 (2d) [2]: 100
- TC50 (6d) [2]: 100

Compound: CCOc1ccccc1C(=O)NC1N=C(c2ccccc2)c2ccccc2NC1=O (centres unmarked) [Example 106, 2-Ethoxy-N-(2-oxo-5-phenyl-2,3-dihydro-1H-benzo[e][1,4]diazepin-3-yl)-benzamide]
- IC50 [1, 3]: 0.7 µM
- TC50 (2d) [2]: >100
- TC50 (6d) [2]: >100

Compound: COc1ccc(C(=O)NC2N=C(c3ccccc3)c3ccccc3NC2=O)c(OC)c1 (centres unmarked) [Example 107, 2,4-Dimethoxy-N-(2-oxo-5-phenyl-2,3-dihydro-1H-benzo[e][1,4]diazepin-3-yl)-benzamide]
- IC50 [1, 3]: < 0.3 µM
- TC50 (2d) [2]: 60
- TC50 (6d) [2]: 60

Compound: O=C(Nc1c(Cl)cccc1Cl)NC1N=C(c2ccccc2)c2ccccc2NC1=O (centres unmarked) [Example 124, 1-(2,6-Dichloro-phenyl)-3-(2-oxo-5-phenyl-2,3-dihydro-1H-benzo[e][1,4]diazepin-3-yl)-urea]
- IC50 [1, 3]: 5 µM
- TC50 (2d) [2]: 70
- TC50 (6d) [2]: 60

Compound: COc1ccc([N+](=O)[O-])c(C(=O)NC2N=C(c3ccccc3)c3ccccc3NC2=O)c1 (centres unmarked) [Example 94, 5-Methoxy-2-nitro-N-(2-oxo-5-phenyl-2,3-dihydro-1H-benzo[e][1,4]diazepin-3-yl)-benzamide]
- IC50 [1, 3]: 1.5 µM
- TC50 (2d) [2]: >100
- TC50 (6d) [2]: >100

Compound: COc1ccc(CCC(=O)NC2N=C(c3ccccc3)c3ccccc3NC2=O)cc1 (centres unmarked) [Example 98, 3-(4-Methoxy-phenyl)-N-(2-oxo-5-phenyl-2,3-dihydro-1H-benzo[e][1,4]diazepin-3-yl)-propionamide]
- IC50 [1, 3]: 5 µM
- TC50 (2d) [2]: >100
- TC50 (6d) [2]: >100

Compound: COc1ccccc1C(=O)NC1N=C(c2cccc(Cl)c2)c2ccccc2NC1=O (centres unmarked) [Example 99, N-[5-(3-Chloro-phenyl)-2-oxo-2,3-dihydro-1H-benzo[e][1,4]diazepin-3-yl]-2-methoxy-benzamide]
- IC50 [1, 3]: 1 µM
- TC50 (2d) [2]: 100
- TC50 (6d) [2]: >100

Compound: N-[5-(3-Chloro-phenyl)-2-oxo-5-phenyl-2,3-dihydro-1H-benzo[e][1,4]diazepin-3-yl]-4-methoxy-benzamide [Example 100]
- IC50 [1, 4]: 4 µM
- TC50 (2d) [2]: >100
- TC50 (6d) [2]: 100

Compound: CSc1ccccc1NC(=O)NC1N=C(c2ccccc2)c2ccccc2NC1=O (centres unmarked) [Example 123, 1-(2-Methylsulfanyl-phenyl)-3-(2-oxo-5-phenyl-2,3-dihydro-1H-benzo[e][1,4]diazepin-3-yl)-urea]
- IC50 [1, 3]: 2 µM
- TC50 (2d) [2]: >100
- TC50 (6d) [2]: 100

Compound: O=C(NC1N=C(c2ccccc2)c2ccccc2NC1=O)OCc1ccccc1 (centres unmarked) [Example 114, (2-Oxo-5-phenyl-2,3-dihydro-1H-benzo[e][1,4]diazepin-3-yl)-carbamic acid benzyl ester]
- IC50 [1, 3]: 5 µM
- TC50 (2d) [2]: >100
- TC50 (6d) [2]: 60

Compound: COc1ccc(C(=O)NC2N=C(c3ccccc3)c3ccccc3NC2=O)cc1[N+](=O)[O-] (centres unmarked) [Example 89, 4-Methoxy-3-nitro-N-(2-oxo-5-phenyl-2,3-dihydro-1H-benzo[e][1,4]diazepin-3-yl)benzamide]
- IC50 [1, 3]: 0.8 µM
- TC50 (2d) [2]: >100
- TC50 (6d) [2]: >100

Compound: N-[5-(3-Chloro-phenyl)-2-oxo-5-phenyl-2,3-dihydro-1H-benzo[e][1,4]diazepin-3-yl]-2-nitro-benzamide [Example 101]
- IC50 [1, 4]: 2.5 µM
- TC50 (2d) [2]: 100
- TC50 (6d) [2]: 100

Compound: CN(C)c1ccccc1C(=O)NC1N=C(c2ccccc2)c2ccccc2NC1=O (centres unmarked) [Example 113, 2-Dimethylamino-N-(2-oxo-5-phenyl-2,3-dihydro-1H-benzo[e][1,4]diazepin-3-yl)-benzamide]
- IC50 [1, 3]: 1.5 µM
- TC50 (2d) [2]: >100
- TC50 (6d) [2]: >100

Compound: COc1ccc(Br)c(C(=O)NC2N=C(c3ccccc3)c3ccccc3NC2=O)c1 (centres unmarked) [Example 108, 2-Bromo-5-methoxy-N-(2-oxo-5-phenyl-2,3-dihydro-1H-benzo[e][1,4]diazepin-3-yl)-benzamide]
- IC50 [1, 3]: 2 µM
- TC50 (2d) [2]: >100
- TC50 (6d) [2]: >100

Compound: COc1ccc(C(=O)NC2N=C(c3ccccc3)c3ccccc3NC2=O)cc1 (centres unmarked) [Example 10, 4-Methoxy N-(2-oxo-5-phenyl-2,3-dihydro-1H-benzo[e][1,4]diazepin-3-yl)-benzamide]
- IC50 ([1]; Table 1, read-out: XTT IC50): 1.5 µM

Compound: O=C1Nc2ccccc2C(c2ccccc2)=NC1NCc1ccccc1[N+](=O)[O-] (centres unmarked) [Example 42, 3-(2-Nitro-benzylamino)-5-phenyl-1,3-dihydro-benzo[e][1,4]diazepin-2-one]
- IC50 [1, 5]: 20 µM

Compound: O=C1Nc2ccccc2C(c2ccccc2)=NC1NC(=O)N1CCOCC1 (centres unmarked) [Example 17, Morpholine-4-carboxylic acid (2-oxo-5-phenyl-2,3-dihydro-1H-benzo[e][1,4]diazepin-3-yl)-amide]
- IC50 [1, 5]: 5 µM

Compound: O=C(Cc1ccc([N+](=O)[O-])cc1)NC1N=C(c2ccccc2)c2ccccc2NC1=O (centres unmarked) [Example 63, 2-(4-Nitro-phenyl)-N-(2-oxo-5-phenyl-2,3-dihydro-1H-benzo[e][1,4]diazepin-3-yl)-acetamide]
- IC50 [1, 5]: 1.7 µM

Compound: CCCS(=O)(=O)NC1N=C(c2ccccc2)c2ccccc2NC1=O (centres unmarked) [Example 36]
- IC50 ([1]; Table 1, read-out: XTT IC50): 15 µM

Compound: O=C(NC1N=C(c2ccccc2)c2ccccc2NC1=O)c1csc2ccccc12 (centres unmarked) [Example 28, Benzo[b]thiophene-3-carboxylic acid (2-oxo-5-phenyl-2,3-dihydro-1H-benzo[e][1,4]diazepin-3-yl)-amide]
- IC50 [1, 5]: 5 µM

Compound: O=C1Nc2ccccc2C(c2ccccc2)=NC1NS(=O)(=O)c1ccccc1F (centres unmarked) [Example 41, 2-Fluoro-N-(2-oxo-5-phenyl-2,3-dihydro-1H-benzo[e][1,4]diazepin-3-yl)-benzenesulfonamide]
- IC50 [1, 5]: 10 µM

Compound: O=C(NC1N=C(c2ccccc2)c2ccccc2NC1=O)c1cccnc1 (centres unmarked) [Example 34, N-(2-Oxo-5-phenyl-2,3-dihydro-1H-benzo[e][1,4]diazepin-3-yl)-nicotinamide]
- IC50 [1, 5]: 3 µM
